Assay results reported in patent US11071735B2, “Treatment of inflammatory conditions and autoimmune diseases with glucose uptake inhibitors” (Kadmon Corporation, LLC, priority 2017, dated 2021).

Key:
[1] = system: phosphorylation of STAT1 and STAT3; assay: Western blot of STAT1/STAT3 phosphorylation in activated CD4 T cells; assay type: cell-based, human; conditions: 1 μM; CD4 T cells activated 48 hrs with IL-1β, TGF-β
Description: FIG. 8. […] FIG. 8A. CD4 T cells were activated for 48 hrs in the presence of IL-1β, TGF-β and 1 μM of the Example 2 compound. Western blotting analysis was used to determine the activation status of Stat3, Stat1 and pS6K (as a marker of mTORC1 activity) and the expression of GLUT1 protein. FIG. 8B. CD4 T cells were activated for 48 hrs and treated with the indicated compounds for 1.5 or 4 hrs. Western blotting analysis was used to determine the activation status of Stat3, Stat1 and pS6K (as a marker of mTORC1 activity). GLUT1/3 inhibitors downregulate phosphorylation of STAT1 and STAT3, key signaling molecules in activated T cells. In FIG. 8A. CD4 T cells were activated for 48 hrs in the presence of IL-1β, TGF-β and 1 μM of the Example 2 compound. Western blotting analysis was used to determine the activation status of Stat3, Stat1 and pS6K (as a marker of mTORC1 activity) and the expression of GLUT1 protein. CD4 T cells were activated for 48 hrs and treated with the indicated compounds in FIG. 8B for 1.5 or 4 hrs. […] IL-17 levels were measured by ELISA (R&D systems, Human IL-17 Quantikine ELISA kit). Proliferation was measured by Cell Titer Glo (Promega). Intracellular staining was performed and analyzed using the Guava EasyCyte flow cytometer. […] Protein levels and phosphorylation status were assessed by western blot analysis using antibodies purchased from Cell Signaling.

GLUT3 = target: T1, GLUT3 (Homo sapiens, UniProt P11169); assay: glycolysis assay in DLD1 GLUT1−/− cells (rely on GLUT3); assay type: cell-based; conditions: DLD1-KO (GLUT1−/−) cells; 10 μM oligomycin, one hour
T1 construct: endogenous in cells; host or cells: DLD1 GLUT1−/− (knock-out) cancer cells
T1 sequence (P11169 1-496): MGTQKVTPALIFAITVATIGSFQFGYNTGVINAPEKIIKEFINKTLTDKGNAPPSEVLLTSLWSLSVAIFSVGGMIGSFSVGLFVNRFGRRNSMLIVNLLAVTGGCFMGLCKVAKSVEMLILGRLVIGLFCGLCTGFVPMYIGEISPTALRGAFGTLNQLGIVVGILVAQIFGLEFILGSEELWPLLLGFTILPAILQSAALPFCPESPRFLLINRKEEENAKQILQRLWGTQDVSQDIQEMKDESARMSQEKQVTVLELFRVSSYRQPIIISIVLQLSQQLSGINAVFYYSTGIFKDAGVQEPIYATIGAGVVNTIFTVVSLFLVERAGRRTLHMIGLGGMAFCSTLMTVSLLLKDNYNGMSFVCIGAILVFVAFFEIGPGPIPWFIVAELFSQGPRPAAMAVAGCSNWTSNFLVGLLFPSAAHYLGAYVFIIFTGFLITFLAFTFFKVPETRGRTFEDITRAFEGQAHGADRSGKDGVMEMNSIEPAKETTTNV
Outline: (§1)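 Cells […] exposed for 1 h to inhibitor plus 10 μM oligomycin to block mitochondrial ATP; remaining glycolytic ATP read by CellTiter-Glo luminescence. IC50 derived from dose-response curves.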

MCP-1 secretion = MCP-1 secretion of LPS-treated THP1 monocytes (ELISA); assay type: cell-based; conditions: THP1 cells, compound one hour prior to 16 hour 1 μg/ml LPS
Description: In FIG. 5A, THP1 cells were activated with 1 μg/ml LPS for 16 hrs prior to a one-hour glycolysis assay (Example 2+Oligomycin). In FIG. 5B, THP1 cells were treated with Example 2 one hour prior to a 16 hour treatment with 1 μg/ml LPS, after which MCP-1 secretion into the media was measured by ELISA (R&D systems) and cell number measured by Cell Titer Glo (Promega).
THP1 Monocyte assay: THP1 monocytic cancer cells were activated with 1 ug/ml LPS (Sigma-Aldrich). The previously described glycolysis assay was performed 16 hrs post-activation. For cytokine secretion, cells were pre-treated for one hour with GLUT inhibitors prior to 16 hours of 1 μg/ml LPS treatment.

GLUT1 = target: T2, GLUT1 (Homo sapiens, UniProt P11166); assay: glycolysis assay in DLD1 WT cells (rely on GLUT1); assay type: cell-based; conditions: DLD1-WT cells; 10 μM oligomycin, one hour
T2 construct: endogenous in cells; host or cells: DLD1 WT cancer cells
T2 sequence (P11166 1-492): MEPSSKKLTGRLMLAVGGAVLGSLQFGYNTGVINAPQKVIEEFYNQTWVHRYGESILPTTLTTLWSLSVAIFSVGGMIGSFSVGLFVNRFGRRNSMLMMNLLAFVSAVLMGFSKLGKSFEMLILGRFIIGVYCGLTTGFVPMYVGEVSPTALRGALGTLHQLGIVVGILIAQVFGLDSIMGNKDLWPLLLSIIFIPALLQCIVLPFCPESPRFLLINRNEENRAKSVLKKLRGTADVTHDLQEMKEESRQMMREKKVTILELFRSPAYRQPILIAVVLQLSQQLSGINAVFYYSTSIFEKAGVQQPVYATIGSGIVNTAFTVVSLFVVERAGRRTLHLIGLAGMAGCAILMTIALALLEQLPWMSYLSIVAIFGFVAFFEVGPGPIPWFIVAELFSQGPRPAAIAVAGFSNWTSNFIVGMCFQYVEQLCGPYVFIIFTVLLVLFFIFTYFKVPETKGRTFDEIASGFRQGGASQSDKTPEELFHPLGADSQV
Outline: as §1

- IC50 (GLUT3): 60.9 nM
- IC50 (GLUT1): 115 nM
Compound: CCOc1ccc2nc(-c3cccc(OCC(=O)NC(C)C)c3)nc(Nc3ccc(-c4cn[nH]c4)cc3)c2c1 [Ex. 2, 2-(3-(4-((4-(1H-pyrazol-4-yl)phenyl)amino)-6-ethoxyquinazolin-2-yl)phenoxy)-N-isopropylacetamide]
- phosphorylation of STAT1 and STAT3 [1]: downregulate the phosphorylation of STAT1 and STAT3
- MCP-1 secretion (MCP-1 secretion): inhibits cytokine/chemokine secretion
